A word on the EC50: it is the concentration giving half of the maximal effect. Read a high EC50 as lower potency in that assay. Broadly, the IC50 is the concentration that gives 50% inhibition.

Experimental findings from patent publication US20240043427A1 (Gilead Sciences, Inc., priority 2020, published 2024) are described below.

The target in experiment [1] is T1, CD73 (Homo sapiens (Human), UniProt P21589). Put plainly: MDA-MB-231 Cell Based CD73 Activity Assay (DMEM). Conditions: MDA-MB-231-GFP cells, DMEM medium with 10% human plasma, 200 uM AMP.
T1 sequence (P21589 27-574): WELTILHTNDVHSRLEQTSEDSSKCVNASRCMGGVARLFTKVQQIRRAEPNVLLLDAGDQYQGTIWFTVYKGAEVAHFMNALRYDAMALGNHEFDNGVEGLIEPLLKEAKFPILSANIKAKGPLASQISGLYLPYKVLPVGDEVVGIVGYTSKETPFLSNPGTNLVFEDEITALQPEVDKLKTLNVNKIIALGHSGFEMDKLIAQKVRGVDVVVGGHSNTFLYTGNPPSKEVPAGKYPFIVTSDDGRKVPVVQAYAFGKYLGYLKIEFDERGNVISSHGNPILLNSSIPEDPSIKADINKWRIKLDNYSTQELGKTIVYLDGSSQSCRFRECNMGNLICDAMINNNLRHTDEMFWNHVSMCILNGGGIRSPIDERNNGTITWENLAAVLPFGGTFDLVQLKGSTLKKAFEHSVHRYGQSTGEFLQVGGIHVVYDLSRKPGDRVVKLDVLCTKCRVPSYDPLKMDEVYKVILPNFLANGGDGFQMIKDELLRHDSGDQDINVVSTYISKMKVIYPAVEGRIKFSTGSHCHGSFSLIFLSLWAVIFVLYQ
Experiment [2] concerns the target T1, CD73. In kind it is biochemical. Conditions: 1 mM NaH2PO4 in enzyme buffer, CD73 0.3 nM, AMP 15 uM.

SMILES strings stand for the structures.

`O=c1[nH]cc(-c2cc([C@H]3C[C@@H]3c3ccc4c(C(F)(F)F)nn(CC(F)(F)F)c4c3)c3nccn3n2)c(=O)[nH]1` [Example 607, 5-(8-((1S,2S)-2-(1-(2,2,2-trifluoroethyl)-3-(trifluoromethyl)-1H-indazol-6-yl)cyclopropyl)imidazo[1,2-b]pyridazin-6-yl)pyrimidine-2,4(1H,3H)-dione] displayed a 50% effective concentration (EC50) at CD73 [1] of 0.23 nM. The IC50 on CD73 [2] amounted to 0.9 nM.

The molecule `O=c1[nH]cc(-c2cc([C@H]3C[C@@H]3c3ccc4cnn(CC(F)(F)F)c4n3)c3ncc(F)n3n2)c(=O)[nH]1` [Example 610, 5-(3-fluoro-8-((1S,2S)-2-(1-(2,2,2-trifluoroethyl)-1H-pyrazolo[3,4-b]pyridin-6-yl)cyclopropyl)imidazo[1,2-b]pyridazin-6-yl)pyrimidine-2,4(1H,3H)-dione] had an EC50 on CD73 [1] of 0.23 nM. The same molecule showed an IC50 against CD73 [2] of 0.37 nM.

At CD73 [1], `O=c1[nH]cc(-c2cc([C@@H]3C[C@H]3c3cc4c(cn3)cnn4CC(F)(F)F)c3ncc(F)n3n2)c(=O)[nH]1` [Example 612, 5-(3-fluoro-8-((1R,2R)-2-(1-(2,2,2-trifluoroethyl)-1H-pyrazolo[4,3-c]pyridin-6-yl)cyclopropyl)imidazo[1,2-b]pyridazin-6-yl)pyrimidine-2,4(1H,3H)-dione] gave an EC50 of 1.02 nM. On CD73 [2], this molecule came in with an IC50 of 6.06 nM.

Regarding `CC(n1ncc2ccc([C@H]3C[C@@H]3c3cc(-c4c[nH]c(=O)[nH]c4=O)nn4ccnc34)cc21)C(F)(F)F` (stereo partly drawn) [Example 617, 5-(8-((1S,2S)-2-(1-(1,1,1-trifluoropropan-2-yl)-1H-indazol-6-yl)cyclopropyl)imidazo[1,2-b]pyridazin-6-yl)pyrimidine-2,4(1H,3H)-dione], the concentration for a half-maximal effect (EC50) on CD73 [1] amounted to 0.22 nM. At CD73 [2], this molecule had an IC50 of 0.78 nM.

As for `O=c1[nH]cc(-c2cc([C@H]3C[C@@H]3c3cc(F)c4cnn(CC(F)(F)F)c4c3)c3ncc(F)n3n2)c(=O)[nH]1` [Example 618, 5-(3-fluoro-8-((1S,2S)-2-(4-fluoro-1-(2,2,2-trifluoroethyl)-1H-indazol-6-yl)cyclopropyl)imidazo[1,2-b]pyridazin-6-yl)pyrimidine-2,4(1H,3H)-dione], the concentration giving a half-maximal response (EC50) on CD73 [1] is 0.13 nM. Also, at CD73 [2], it took 0.34 nM to reach half-maximal inhibition (IC50).

In the case of `O=c1[nH]cc(-c2cc([C@H]3C[C@@H]3c3ccc4nc(C(F)(F)F)n(CC(F)(F)F)c4c3)c3nccn3n2)c(=O)[nH]1` [Example 620, 5-(8-((1S,2S)-2-(1-(2,2,2-trifluoroethyl)-2-(trifluoromethyl)-1H-benzo[d]imidazol-6-yl)cyclopropyl)imidazo[1,2-b]pyridazin-6-yl)pyrimidine-2,4(1H,3H)-dione], the EC50 at CD73 [1] came out at 0.07 nM. For the same molecule, on CD73 [2], the IC50 is 1.22 nM.

With `O=c1[nH]cc(-c2cc([C@H]3C[C@@H]3c3cnc4cnn(CC(F)(F)F)c4c3)c3ncc(F)n3n2)c(=O)[nH]1` [Example 628, 5-(3-fluoro-8-((1S,2S)-2-(1-(2,2,2-trifluoroethyl)-1H-pyrazolo[4,3-b]pyridin-6-yl)cyclopropyl)imidazo[1,2-b]pyridazin-6-yl)pyrimidine-2,4(1H,3H)-dione], on CD73 [1], the concentration giving a half-maximal response (EC50) was found to be 0.23 nM. On CD73 [2], the concentration for half-maximal inhibition (IC50) is 0.73 nM.

The molecule `O=c1[nH]cc(-c2cc([C@H]3C[C@@H]3c3ccc4cnn(CC(F)(F)F)c4c3F)c3ncnn3n2)c(=O)[nH]1` [Example 629, 5-(8-((1S,2S)-2-(7-fluoro-1-(2,2,2-trifluoroethyl)-1H-indazol-6-yl)cyclopropyl)-[1,2,4]triazolo[1,5-b]pyridazin-6-yl)pyrimidine-2,4(1H,3H)-dione] came in with an EC50 on CD73 [1] of 0.05 nM. The molecule also had a concentration for half-maximal inhibition (IC50) against CD73 [2] of 0.2 nM.

The molecule `O=c1[nH]cc(-c2cc([C@H]3C[C@@H]3c3ccc(Cl)cc3)c3nccn3n2)c(=O)[nH]1` [Example 633, 5-(8-((1S,2S)-2-(4-chlorophenyl)cyclopropyl)imidazo[1,2-b]pyridazin-6-yl)pyrimidine-2,4(1H,3H)-dione] yielded a concentration giving a half-maximal response (EC50) on CD73 [1] of 7.08 nM. Moreover, half-maximal inhibition against CD73 [2] (IC50) required 1.55 nM.
